Experiments:
[1] = target: BRD4 protein (Homo sapiens (Human), UniProt O60885); experiment: BRD4 protein degradation inducing action in cancer cells (immunofluorescence, Operetta); type: cell-based; conditions: LNCaP cells, 6 hr treatment, fluorescence intensity
Outline: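 LNCaP prostate cancer cells in 10% FBS/RPMI1640 were exposed to compound for 6 hr at 37° C, then fixed, permeabilized and immunostained for BRD4 with Alexa Fluor 488 or 546 secondary antibodies plus Hoechst nuclear stain. Fluorescence was read by high-content imaging; DC50 is the concentration giving 50% of untreated signal, interpolated linearly between bracketing points.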

[2] = tested on: human prostate cancer LNCaP cells; experiment: Cytotoxic action on cancer cells (WST-8, 96 hr); type: cell-based; conditions: Homo sapiens, LNCaP, 96 h, read-out: LNCaP cytotoxic activity: IC50
Outline: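 Cells in 10% FBS/RPMI1640 were seeded, cultured overnight at 37 °C with 5% CO2, then exposed to compound for 96 hr. Viable cells were measured with WST-8 against compound-free controls. IC50 was interpolated linearly between the two concentrations bracketing 50% survival.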

| DC50 [1] [pM] | SMILES | IC50 [2] [pM] |
| --- | --- | --- |
| 460 | COC(=O)C[C@@H]1N=C(c2ccc(N3CC[C@H](C(=O)NCCOc4ccc5oc(C(=O)N[C@H](C(=O)N6C[C@H](O)C[C@H]6C(=O)N[C@@H](C)c6ccc(-c7scnc7C)cc6)C(C)(C)C)cc5c4)C3)cc2)c2c(sc(C)c2C)-n2c(C)nnc21 [Example Compound 68, methyl [(6S)-4-(4-{(3S)-3-[(2-{[2-({(2S)-1-[(2S,4R)-4-hydroxy-2-({(1S)-1-[4-(4-methyl-1,3-thiazol-5-yl)phenyl]ethyl}carbamoyl)pyrrolidin-1-yl]-3,3-dimethyl-1-oxobutan-2-yl}carbamoyl)-1-benzofuran-5-yl]oxy}ethyl)carbamoyl]pyrrolidin-1-yl}phenyl)-2,3,9-trimethyl-6H-thieno[3,2-f][1,2,4]triazolo[4,3-a][1,4]diazepin-6-yl]acetate] | 520 |
| 170 | COC(=O)C[C@@H]1N=C(c2ccc(-c3ccc(C(=O)N[C@H](C(=O)N4C[C@H](O)C[C@H]4C(=O)NCc4ccc(-c5scnc5C)cc4)C(C)(C)C)c(Cl)c3)cc2)c2c(sc(C)c2C)-n2c(C)nnc21 [Example 190, methyl {(6S)-4-[3′-chloro-4′-({(2S)-1-[(2S,4R)-4-hydroxy-2-({[4-(4-methyl-1,3-thiazol-5-yl)phenyl]methyl}carbamoyl)pyrrolidin-1-yl]-3,3-dimethyl-1-oxobutan-2-yl}carbamoyl)[1,1′-biphenyl]-4-yl]-2,3,9-trimethyl-6H-thieno[3,2-f][1,2,4]triazolo[4,3-a][1,4]diazepin-6-yl}acetate] | 130 |
| 520 | COC(=O)C[C@@H]1N=C(c2ccc(NC(=O)CCc3ccc(OCCOCCOCCOCCOCCOCCOCCOCC(=O)N[C@H](C(=O)N4C[C@H](O)C[C@H]4C(=O)N[C@@H](C)c4ccc(-c5scnc5C)cc4)C(C)(C)C)cc3)cc2)c2c(sc(C)c2C)-n2c(C)nnc21 [Example 5, methyl [(6S)-4-(4-{3-[4-({(25S)-25-[(2S,4R)-4-hydroxy-2-({(18)-1-[4-(4-methyl-1,3-thiazol-5-yl)phenyl]ethyl}carbamoyl)pyrrolidine-1-carbonyl]-26,26-dimethyl-23-oxo-3,6,9,12,15,18,21-heptaoxa-24-azaheptacosan-1-yl}oxy)phenyl]propanamido}phenyl)-2,3,9-trimethyl-6H-thieno[3,2-f][1,2,4]triazolo[4,3-a][1,4]diazepin-6-yl]acetate] | 1200 |
| 720 | COC(=O)C[C@@H]1N=C(c2ccc(-c3ccc(C(=O)N[C@H](C(=O)N4C[C@H](O)C[C@H]4C(=O)N[C@@H](C)c4ccc(-c5scnc5C)cc4)C(C)(C)C)s3)cc2)c2c(sc(C)c2C)-n2c(C)nnc21 [Example 141, methyl [(6S)-4-{4-[5-({(2S)-1-[(2S,4R)-4-hydroxy-2-({(1S)-1-[4-(4-methyl-1,3-thiazol-5-yl)phenyl]ethyl}carbamoyl)pyrrolidin-1-yl]-3,3-dimethyl-1-oxobutan-2-yl}carbamoyl)thiophen-2-yl]phenyl}-2,3,9-trimethyl-6H-thieno[3,2-f][1,2,4]triazolo[4,3-a][1,4]diazepin-6-yl]acetate] | 380 |
| 530 | COC(=O)C[C@@H]1N=C(c2ccc(-c3cc(C(=O)N[C@H](C(=O)N4C[C@H](O)C[C@H]4C(=O)N[C@@H](C)c4ccc(-c5scnc5C)cc4)C(C)(C)C)cc(F)c3F)cc2)c2c(sc(C)c2C)-n2c(C)nnc21 [Example 173, methyl {(6S)-4-[2′,3′-difluoro-5′-({(2S)-1-[(2S,4R)-4-hydroxy-2-({(1S)-1-[4-(4-methyl-1,3-thiazol-5-yl)phenyl]ethyl}carbamoyl)pyrrolidin-1-yl]-3,3-dimethyl-1-oxobutan-2-yl}carbamoyl)[1,1′-biphenyl]-4-yl]-2,3,9-trimethyl-6H-thieno[3,2-f][1,2,4]triazolo[4,3-a][1,4]diazepin-6-yl}acetate] | 530 |
| 98 | CC(=O)NC1N=C(c2ccc(-c3ccc(OCC(=O)N[C@H](C(=O)N4C[C@H](O)C[C@H]4C(=O)N[C@@H](C)c4ccc(-c5scnc5C)cc4)C(C)(C)C)cc3)cc2)c2c(sc(C)c2C)-n2c(C)nnc21 (stereo partly drawn) [Example 34, (2S,4R)-1-[(2S)-2-(2-{[4′-(6-acetamido-2,3,9-trimethyl-6H-thieno[3,2-f][1,2,4]triazolo[4,3-a][1,4]diazepin-4-yl) [1,1′-biphenyl]-4-yl]oxy}acetamido)-3,3-dimethylbutanoyl]-4-hydroxy-N-{(1S)-1-[4-(4-methyl-1,3-thiazol-5-yl)phenyl]ethyl}pyrrolidine-2-carboxamide] | 720 |
| 750 | COC(=O)C[C@@H]1N=C(c2ccc(-c3ccc(OCC(=O)N[C@H](C(=O)N4C[C@H](O)C[C@H]4C(=O)N[C@@H](C)c4ccc(-c5scnc5C)cc4)C(C)(C)C)cc3OC(F)(F)F)cc2)c2c(sc(C)c2C)-n2c(C)nnc21 [Example Compound 75, methyl [(6S)-4-{4′-[2-({(2S)-1-[(2S,4R)-4-hydroxy-2-({(1S)-1-[4-(4-methyl-1,3-thiazol-5-yl)phenyl]ethyl}carbamoyl)pyrrolidin-1-yl]-3,3-dimethyl-1-oxobutan-2-yl}amino)-2-oxoethoxy]-2′-(trifluoromethoxy)[1,1′-biphenyl]-4-yl}-2,3,9-trimethyl-6H-thieno[3,2-f] [1,2,4]triazolo[4,3-a][1,4]diazepin-6-yl]acetate] | 390 |
| 660 | Cc1ncsc1-c1ccc([C@H](C)NC(=O)[C@@H]2C[C@@H](O)CN2C(=O)[C@@H](NC(=O)c2ccc(-c3ccc(C4=N[C@@H](C)c5nnc(C)n5-c5sc6c(c54)CCC6)cc3)cc2)C(C)(C)C)cc1 [Example 200, (2S,4R)-1-[(2S)-2-({4′-[(45)-1,4-dimethyl-8,9-dihydro-4H,7H-cyclopenta[4,5]thieno[3,2-f][1,2,4]triazolo[4,3-a] [1,4]diazepin-6-yl][1,1′-biphenyl]-4-carbonyl}amino)-3,3-dimethylbutanoyl]-4-hydroxy-N-{(1S)-1-[4-(4-methyl-1,3-thiazol-5-yl)phenyl]ethyl}pyrrolidine-2-carboxamide] | 380 |
| 440 | COC(=O)C[C@@H]1N=C(c2ccc(-c3ccc(C(=O)N[C@H](C(=O)N4C[C@H](O)C[C@H]4C(=O)N[C@@H](C)c4ccc(-c5scnc5C)cc4)C(C)(C)C)c(F)c3F)cc2)c2c(sc(C)c2C)-n2c(C)nnc21 [Example 176, methyl {(6S)-4-[2′,3′-difluoro-4′-({(2S)-1-[(2S,4R)-4-hydroxy-2-({(1S)-1-[4-(4-methyl-1,3-thiazol-5-yl)phenyl]ethyl}carbamoyl)pyrrolidin-1-yl]-3,3-dimethyl-1-oxobutan-2-yl}carbamoyl)[1,1′-biphenyl]-4-yl]-2,3,9-trimethyl-6H-thieno[3,2-f][1,2,4]triazolo[4,3-a][1,4]diazepin-6-yl}acetate] | 390 |
| 97 | COC(=O)C[C@@H]1N=C(c2ccc(-c3ccc(OC(F)(F)C(=O)N[C@H](C(=O)N4C[C@H](O)C[C@H]4C(=O)N[C@@H](C)c4ccc(-c5scnc5C)cc4)C(C)(C)C)cc3)cc2)c2c(sc(C)c2C)-n2c(C)nnc21 [Example 122, methyl [(6S)-4-{4′-[1,1-difluoro-2-({(2S)-1-[(2S,4R)-4-hydroxy-2-({(1S)-1-[4-(4-methyl-1,3-thiazol-5-yl)phenyl]ethyl}carbamoyl)pyrrolidin-1-yl]-3,3-dimethyl-1-oxobutan-2-yl}amino)-2-oxoethoxy][1,1′-biphenyl]-4-yl}-2,3,9-trimethyl-6H-thieno[3,2-f][1,2,4]triazolo[4,3-a][1,4]diazepin-6-yl]acetate] | 400 |
| 730 | CNC(=O)C[C@@H]1N=C(c2ccc(-c3ccc(C(=O)N[C@H](C(=O)N4C[C@H](O)C[C@H]4C(=O)N[C@@H](C)c4ccc(-c5scnc5C)cc4)C(C)(C)C)cc3F)cc2)c2c(sc(C)c2C)-n2c(C)nnc21 [Example 206, (2S,4R)-1-{(2S)-2-[(2-fluoro-4′-{(6S)-2,3,9-trimethyl-6-[2-(methylamino)-2-oxoethyl]-6H-thieno[3,2-f] [1,2,4]triazolo[4,3-a][1,4]diazepin-4-yl}[1,1′-biphenyl]-4-carbonyl)amino]-3,3-dimethylbutanoyl}-4-hydroxy-N-{(1S)-1-[4-(4-methyl-1,3-thiazol-5-yl)phenyl]ethyl}pyrrolidine-2-carboxamide] | 680 |
| 430 | Cc1ncsc1-c1ccc([C@H](C)NC(=O)[C@@H]2C[C@@H](O)CN2C(=O)[C@@H](NC(=O)COc2ccc(-c3ccc(C4=NC(O)c5nnc(C)n5-c5sc(C)c(C)c54)cc3)cc2)C(C)(C)C)cc1 (stereo partly drawn) [Example 30, (2S,4R)-4-hydroxy-1-[(2S)-2-(2-{[4′-(6-hydroxy-2,3,9-trimethyl-6H-thieno[3,2-f][1,2,4]triazolo[4,3-a][1,4]diazepin-4-yl)[1,1′-biphenyl]-4-yl]oxy}acetamido)-3,3-dimethylbutanoyl]-N-{(1S)-1-[4-(4-methyl-1,3-thiazol-5-yl)phenyl]ethyl}pyrrolidine-2-carboxamide] | 990 |
| 460 | COC(=O)C[C@@H]1N=C(c2ccc(-c3ccc4c(c3)N(CC(=O)N[C@H](C(=O)N3C[C@H](O)C[C@H]3C(=O)N[C@@H](C)c3ccc(-c5scnc5C)cc3)C(C)(C)C)C(=O)CC4)cc2)c2c(sc(C)c2C)-n2c(C)nnc21 [Example 146, methyl [(6S)-4-(4-{1-[2-({(2S)-1-[(2S,4R)-4-hydroxy-2-({(1S)-1-[4-(4-methyl-1,3-thiazol-5-yl)phenyl]ethyl}carbamoyl)pyrrolidin-1-yl]-3,3-dimethyl-1-oxobutan-2-yl}amino)-2-oxoethyl]-2-oxo-1,2,3,4-tetrahydroquinolin-7-yl}phenyl)-2,3,9-trimethyl-6H-thieno[3,2-f] [1,2,4]triazolo[4,3-a][1,4]diazepin-6-yl]acetate] | 440 |
